Measured values taken from US8158682B2, “Instillation administration of capsaicinoids for the treatment of pain” (Vallinex, Inc., priority 2008, dated 2012).
Values joined by “and” are separate entries in the source; they are usually repeats but may differ in a detail not shown here. Identical values can stand only once. “Also recorded” adds a separate entry of the source.

How the values were obtained:
sciatic nerve = assay: Extrafascicular instillation on sciatic nerve: body weight, behavioral testing, nerve histology; type: in vivo, rat
Procedure: (§1) Adult CD Charles River rats were anesthetized with isoflurane and oxygen. Extrafascicular instillation: The sciatic nerve was exposed by blunt dissection and 100 μl of test article was applied directly to the sciatic nerve). Treatment groups received either vehicle (25% PEG 300), 0.0083 mg capsaicin (≧98% pure) or 0.025 mg capsaicin dissolved in vehicle. […] Osteotomy: The lateral aspect of the right femur was exposed and cut at the midshaft using an oscillating saw. An intramedullary Kirshner wire was inserted for fracture reduction and the osteotomy site irrigated with 100 μl of the vehicle (20% PEG 300, 10 mM histidine and 5% (w/v) sucrose) or 0.5 mg capsaicin diluted in vehicle.
Behavioral testing: Individual rats were placed in a black plexiglass observation box and parameters including posture, rearing, vocalization, bizarre behavior, mobility, and stereotypy were evaluated based on the methods of Moser et al. (Moser et al., Fundam. Appl. Toxicol. 11: 189-206 (1988)). Forelimb and hindlimb grip strength was measured using a strain gauge that recorded the maximum force in Kg as described by Meyer (Meyer et al. Neurobehav. Toxicol. 1:233-236 (1979) and Meyer and Ross (1966) U.S. Environmental Protection Agency, Wasington, D.C.) Hindlimb splay was quantitatively measured as described by Edwards et al. (Edwards et al., Toxicol Appl. Pharmacol. 40:589-591 (1977)). Thermal response was measured using the hot plate test as previously described by Ankier (Aniker Eur. J. Pharmacol. 27:1-4 (1974). The hot plate was set at 52° C. and the latency between placement of the animal on the heated surface and the first paw lick was recorded. The test was administered three times at predose and at days 3, 14 and 28 post-surgery and the values averaged.
(§2) Histology: Rats were euthanized by intraperitoneal injection of sodium pentobarbital (90 mg/Kg) followed by transcardiac perfusion with 0.9% saline then 3% paraformaldehyde and 3% glutaraldehyde in 0.1 M phosphate buffer. The entire length of sciatic nerve was embedded in paraffin or plastic and representative sections were taken from the treatment site and proximal and distal sites and stained with hematoxylin and eosin (H&E). Sections were scored for neuronal and myelin integrity, appearance and inflammation.
(§3) Statistics: Levene's test was used to assess homogeneity of group variances for each specified end point and for each data collection interval. If Levene's test was not significant (P>0.01), a pooled estimate of the variance (Means Square Error) was computed from a one-way analysis of variance (ANOVA) and utilized by Dunnett's comparison of each treatment group with the control group. If Levene's test was significant (P<0.01), comparisons with the control group were made using Welch's t-test with a Bonferroni correction.

rat paw incision model [1] = assay: Rat paw incision model, postsurgical thermal hyperalgesia (thermal paw withdrawal latency); type: in vivo; conditions: for ED10 / ED20 / ED50: analgesic intensity, thermal hyperalgesia; for ED50: 5 minute intraoperative instillation
Procedure: (§4) Male Sprague-Dawley rats (Chrales River Laboratories, Inc., Wilimington, Mass., 225-250 g) were anesthetized with 2% isoflurane delivered via nose cone. Ten to 15 minutes before surgery, 100 μL of 2% lidocane was injected in the plantar surface of the right hind paw. A 1 centimeter incision (number 15 scalpel blade) was make through the skin, muscle, and fascia of the anesthetized paw, starting 5 mm from the proximal edge of the heel and extending toward the toes. After elevating the incised tissue, 20 μL of capsaicin formulation or vehicle were instilled into the surgical incision, allowed to dwell for pre-specified times, and then removed via aspiration using a cotton swab. The incision was apposed with 4 single interrupted mattress sutures of 5-0 nylon thread.
(§5) Animals were tested on the day before surgery (baseline) and on days 1, 2, 3, and 6 after surgery. Thermal sensitivity was assessed by thermal paw withdrawal latency as described by Hargreaves et al. (Hargreaves et al., J. Pain 32:77-88 (1988)). Mechanical hyperalgesia was assessed by the “up-down” algorithm of Chaplan et al. (Chaplan et al., J. Neurosci. Methods 53:55-63 (1994)).
(§6) In this study, animals in the active treatment groups received an intraoperative instillation of capsaicin (5 μg per 20 μL 50% PEG-300) for the designated times. Animals in the control groups received 20 μL of 50% PEG-300 for 5 minutes (vehicle) or no intraoperative treatment (sham). Graph points represent mean values; error bars are ±SEM.
(§7) In the study, animals in the active treatment groups received 5 minute intraoperative instillations of capsaicin formulation (1.5 μg to 150 μg per 20 μL of 50% PEG-300). Animals in the control groups received 5 minute intraoperative instillations of 20 μL of 50% PEG-300 (vehicle) or 5 minute intraoperative instillations of 20 μL of 50% PEG-300 plus subcutaneous buprenorphine (50 μg/kg) 1 hour before behavioral testing (Bup). Bars represent mean values; error bars are ±SEM.
The experimental data from FIG. 2 were used to calculate analgesic intensity (AI) as follows: AI(%)=100×([PWLtreat−PWLbasal]/[cut-off−PWLbasal]), where PWLtreat was the paw withdrawal latency after capsaicin treatment, PWLbasal was the paw withdrawal latency on day 1 after vehicle treatment, and cut-of was 20 seconds. […] (CI=confidence interval)

rat paw incision model [2] = assay: Rat paw incision model, postsurgical mechanical hyperalgesia (paw withdrawal threshold, up-down); type: in vivo
Procedure: as §4, §5
as §6, with “(vehicle).” for “(vehicle) or no intraoperative treatment (sham).”
as §7, with “In this” for “In the”, “capsaicin (5, 15, or 75” for “capsaicin formulation (1.5 μg to 150”, “or subcutaneous injection” for “or 5 minute intraoperative instillations”, “of” for “of 20 μL of 50% PEG-300 plus subcutaneous”
In this study, animals in the active treatment groups received 5 minute intraoperative instillations of capsaicin (5, 15, or 75 μg per 20 μL of 50% PEG-300). Animals in the control groups received 5 minute intraoperative instillations of 20 μL of 50% PEG-300 (vehicle). Graph points represent mean values; error bars are ±SEM.

[3] = cited from earlier work
osteotomy site = assay: Femur osteotomy: histology and biomechanical testing (4-point bending); type: in vivo, rat
Procedure: as §1, §2
Biomechanical Testing: Both osteotomized and contralateral whole femurs were tested in 4-point bending with a servohydrolic material test system (858 Mini Bionix) to determine the material properties of the cortical bone. Peak load, energy to break (area under the curve) and stiffness were derived. Peak load was measured as the maximum height of the load-displacement curve, and stiffness was measured as the slope of the linear portion of the load-displacement curve.
as §3

[4] = intraoperative instillation, rat paw incision model
[5] = 0.5 mg, right femur, vs vehicle (FIG. 14)

## COc1cc(CNC(=O)CCCC/C=C/C(C)C)ccc1O [capsaicin, N-(4-hydroxy-3-methoxybenzyl)-8-methylnon-trans-6-enamide]
Sciatic nerve; 0.025 mg extrafascicular instillation, 3 days or 28 days post treatment, vs sham operated (FIG. 12)
  sciatic nerve histology (H&E), appearance: no difference in appearance
Sciatic nerve; extrafascicular instillation (FIG. 8)
  activity/arousal: does not effect activity/arousal
Sciatic nerve; extrafascicular instillation (FIG. 10)
  hindpaw splay: no effect on hindpaw splay
Sciatic nerve; extrafascicular instillation (FIG. 11)
  thermal withdrawal (hot plate, 52° C.): no effect on thermal withdrawal
Sciatic nerve; extrafascicular instillation, summary
  adverse effects on structural integrity of exposed nerve: no observable adverse effects
Sciatic nerve; extrafascicular instillation, first 10 post-operative days, vs sham-operated rats (FIG. 7)
  weight gain: reduces weight gain
Sciatic nerve; extrafascicular instillation, post operative days 3 and 14 (FIG. 9)
  hindpaw grip strength: decreases hindpaw grip strength
Rat paw incision model [1]; 1.5 μg to 150 μg per 20 μL 50% PEG-300, 5 minute instillation (FIG. 2)
  dose dependence of reduction of postsurgical thermal hyperalgesia: dose-dependant; also recorded: dose-dependent
Rat paw incision model [1]; 5 μg per 20 μL 50% PEG-300, instillation 5 or 10 minutes, post-surgical days 1, 2, 3, vs vehicle and sham (FIG. 1)
  postsurgical thermal hyperalgesia (PWL): significantly lower thermal hyperalgesia; also recorded: reduces postsurgical thermal hyperalgesia
Rat paw incision model [1]; day 1 after surgery
  ED10: 3.46 µg
  ED20: 7.77 µg
  ED50: 31.01 µg
Rat paw incision model [1]; day 2 after surgery
  ED10: 2.99 µg
  ED20: 8.38 µg
  ED50: 48.53 µg
Rat paw incision model [1]; day 3 after surgery
  ED10: 1.84 µg
  ED20: 6.09 µg
  ED50: 47.09 µg and 47.08 µg
Rat paw incision model [1]; [4]
  duration of sustained analgesia: up to 6 days
  potency against thermal versus mechanical hyperalgesia: higher potency against postsurgical thermal hyperalgesia than mechanical hyperalgesia
Rat paw incision model [2]; 5 μg per 20 μL 50% PEG-300, designated dwell times (FIG. 4)
  postsurgical mechanical hyperalgesia (PWT): did not reduce postsurgical mechanical hyperalgesia; also recorded: does not reduce postsurgical mechanical hyperalgesia
Rat paw incision model [2]; 75 μg, 5 minute instillation, vs vehicle (FIG. 5)
  postsurgical mechanical hyperalgesia (PWT): produced significant analgesic effects relative to vehicle; also recorded: reduces postsurgical mechanical hyperalgesia
Rat paw incision model [2]; 75 μg, 5 minute instillation, vs vehicle, days 1 and 3 (FIG. 6)
  postsurgical mechanical hyperalgesia (PWT) over time: greater after an instillation of 75 μg capsaicin formulation than vehicle; also recorded: reduces postsurgical mechanical hyperalgesia
Rat paw incision model [2]; 5, 15 or 75 μg per 20 μL 50% PEG-300, 5 minute instillation (FIG. 5)
  dose dependence of reduction of postsurgical mechanical hyperalgesia: dose-dependant
[3]; alcohol, ether, benzene and chloroform
  solubility in organic solvents: freely soluble
[3]; water
  solubility in water: practically insoluble
Osteotomy site; 0.5 mg vs vehicle (FIG. 13)
  osteotomy site histology (H&E): show no differences
Osteotomy site; [5]
  general integrity of bone structure (AUC, energy to break): no difference
  peak load: no difference
  stiffness: no difference
Osteotomy site; instillation, summary
  adverse effects on wound and bone healing following osteotomy: no observable adverse effects
